In US20250185696A1, “NOVEL MENAQUINONE-N (VITAMIN-K2-7) SUPPLEMENTATION FOR LIVESTOCK AND POULTRY” (SYNERGIA LIFE SCIENCES PVT LTD., priority 2022, published 2025):
“And” between values parts separate entries of the source, which are not always exact repeats. Identical values can stand only once.

Assays:
[1] = system: Vencobb 400 breed of broiler chicken; experiment: Pilot study in chicks: body weight; format: in vivo; settings: Treatment group
Experimental: (§1) A pilot study in 5605 chicks to evaluate the role of Menaquinone-n in bird weight increase, FCR and cost efficiency. The chicks were divided into Treatment group (N=2839) and Control group (N=2766). Menaquinone-7 (provided by Synergia Life Sciences as a 2000 ppm water dispersible powder) was administered to the treatment group for 30 days as per dosage outlined in Table 1. The birds were acclimatized for initial 4 days. Menaquinone-7 in divided doses was started on day 5 till day 30 and they were vaccinated on day 6.
(§2) 5605 day old chicks were selected for the study. They were divided into Treatment group consisting of 2839 chicks, while the remaining 2766 were included in the Control group. The chicks were acclimatized for initial 4 days.
(§3) Menaquinone-7 (provided by Synergia Life Sciences as a 2000 ppm water dispersible powder) was administered daily […] to the treatment group in daily dosages as outlined in Table 1. Menaquinone-7 in divided doses was started on day 5 till day 30 and the chicks were vaccinated on day 6. The body weight of the chicks was determined, and mortality rate observed on Day 11, Day 16, Day 22 and Day 28.
(§4) A poultry farm with two open shades was selected for the study. Vencobb 400 breed of broiler chicken were selected for the study. Vencobb 400 breed was selected because at breeder level it is an early maturing bird with early peak, sustained production and better feed efficiency. Vencobb 400 is known for its proven adaptability to varied climatic conditions and husbandry practices.
(§5) The chicks were housed in poultry sheds with tin rooting and open shade sides. Water was fed ad libitum through bell water feeders. The litter consisted of rice husk before housing the birds the cages were sanitized with hypo chloride, The chicks were provided with feed supplied from Godrej Tyson Foods, ad libitum.
(§6) Menaquinone 7 supplementation was in a drinking water as in Table 1. Water was made up to the required level as required daily.
Body weight was estimated by catching 5 birds in each group and determining the total weight and reporting the average at the intervals recorded in Table 2. At the end of treatment, after catching the total catching weight was recorded and the average weight determined.

[2] = system: Vencobb 400 breed of broiler chicken; experiment: Pilot study in chicks: mortality; format: in vivo; settings: for Cumulative Mortality: Treatment group (N=2839)
Experimental: as §1, §2, §3, §4, §5, §6

[3] = system: Vencobb 400 breed of broiler chicken; experiment: Pilot study in chicks: cage side observations; format: in vivo
Experimental: Cage side observations like daily life behavior patterns, odor of litter etc. were recorded.

Birds = experiment: Comparative study of control and treated group (Table 4): mortality, weight, FCR; format: in vivo; settings: Treated group, 2000 birds, K2 supplementation 15 g of 2000 ppm
Experimental: Feed conversion ratio was calculated by taking the total amount of feed consumed by the bird and dividing it by the amount of weight gained.

[4] = regular MK-7 intake; cited from earlier work

CC(C)=CCC/C(C)=C/CC/C(C)=C/CC/C(C)=C/CC/C(C)=C/CC/C(C)=C/CC/C(C)=C/CC1=C(C)C(=O)c2ccccc2C1=O [Menaquinone-7]
Average weight (kg) per chick ([1]; Day 0 (before dosing; dosing day 5 to day 30 in drinking water)): 0.05 kg | Average weight (kg) per chick ([1]; Day 5 (start of dosing)): 0.05 kg | Average weight (kg) per chick ([1]; Day 11): 0.622 kg | Average weight (kg) per chick ([1]; Day 16): 0.966 kg | Average weight (kg) per chick ([1]; Day 22): 1.36 kg | Average weight (kg) per chick ([1]; Day 28): 2 kg and 2.0 kg | Cumulative Mortality ([2]; Day 0): 0 | Cumulative Mortality ([2]; Day 5 (start of dosing)): 30 | Cumulative Mortality ([2]; Day 11): 61 | Cumulative Mortality ([2]; Day 16): 87 | Cumulative Mortality ([2]; Day 22): 95 | Cumulative Mortality ([2]; Day 28): 100 | Overall reduction in mortality rate ([2]; Treatment group versus control group, end of 28th day): over 4% | Mortality rate/day ([2]; Treatment group, Day 5 (start of dosing)): 7.5 per day | Mortality rate/day ([2]; Treatment group, Day 11): 2.8 per day | Mortality rate/day ([2]; Treatment group, Day 16): 5.2 per day | Mortality rate/day ([2]; Treatment group, Day 22): 1.3 per day | Mortality rate/day ([2]; Treatment group, Day 28): 0.8 per day | Mortality % (overall mortality) ([2]; Treatment group, end of 28th day): 3.52% | Ammonia odor in the litter (cage side observation) ([3]; Treatment group as compared to the control group): reduced ammonia odor | Stress due to heat, vaccination and crowding (cage side observation) ([3]; Treatment group in comparison to the control group): appeared comfortable | Avg wt./bird (Birds): 2.1560 kg | FCR (Birds): 0.728 | Mortality (Birds): 1.8% | Blood levels, times higher than when not regularly taken [4]: 7-8 times
